Results on 66 compounds are retold here after US20240287079A1, “6-AMINOPYRAZOLOPYRIMIDINE COMPOUND AND PHARMACEUTICAL USE THEREOF” (Japan Tobacco Inc., priority 2021, published 2024).

pIC50: −log10 of the molar value.

In general, pIC50 refers to the IC50 on a negative log10 scale, so that one unit is a factor of ten. A low value points to a high IC50. One may read the inhibition as how much of the control response was suppressed. Read a low inhibition as a weak effect.

Sequence of NLRP3 inflammasome (Q96P20 whole entry): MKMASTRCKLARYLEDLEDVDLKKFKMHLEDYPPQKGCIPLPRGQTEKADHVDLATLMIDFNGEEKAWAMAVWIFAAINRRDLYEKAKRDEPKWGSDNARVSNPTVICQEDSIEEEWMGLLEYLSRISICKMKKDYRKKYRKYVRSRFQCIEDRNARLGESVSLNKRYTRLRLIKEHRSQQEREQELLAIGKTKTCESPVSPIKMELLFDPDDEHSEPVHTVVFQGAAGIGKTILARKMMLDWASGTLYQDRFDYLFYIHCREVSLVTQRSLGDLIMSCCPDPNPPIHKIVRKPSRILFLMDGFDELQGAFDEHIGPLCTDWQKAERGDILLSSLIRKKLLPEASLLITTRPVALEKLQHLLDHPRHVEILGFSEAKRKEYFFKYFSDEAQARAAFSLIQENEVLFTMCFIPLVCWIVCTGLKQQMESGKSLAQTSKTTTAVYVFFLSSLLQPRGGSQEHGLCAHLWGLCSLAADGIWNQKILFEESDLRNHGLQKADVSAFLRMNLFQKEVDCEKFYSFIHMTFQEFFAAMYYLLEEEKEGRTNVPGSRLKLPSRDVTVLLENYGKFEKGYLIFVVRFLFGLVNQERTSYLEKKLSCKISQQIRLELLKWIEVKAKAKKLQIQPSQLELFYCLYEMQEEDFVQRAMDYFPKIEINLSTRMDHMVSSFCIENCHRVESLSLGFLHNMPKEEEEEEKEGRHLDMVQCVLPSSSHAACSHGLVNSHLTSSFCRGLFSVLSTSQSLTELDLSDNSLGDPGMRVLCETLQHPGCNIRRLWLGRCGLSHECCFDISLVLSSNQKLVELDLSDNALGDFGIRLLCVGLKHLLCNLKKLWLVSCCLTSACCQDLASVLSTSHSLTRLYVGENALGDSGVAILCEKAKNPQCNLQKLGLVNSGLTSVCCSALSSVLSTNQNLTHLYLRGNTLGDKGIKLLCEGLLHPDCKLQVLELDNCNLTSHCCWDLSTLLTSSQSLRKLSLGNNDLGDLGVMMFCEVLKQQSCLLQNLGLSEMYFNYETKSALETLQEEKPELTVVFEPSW

One assay concerns the target NLRP3 inflammasome (Homo sapiens (Human), UniProt Q96P20). Briefly: Evaluation of NLRP3 inflammasome inhibitory activity (inhibition of IL-1β production in LPS/Nigericin-stimulated THP1-Null cells). In kind it is cell-based. The settings on record: IL-1β production in THP1-Null cells, PMA, LPS 1 μg/mL, Nigericin 7.5 μmol/L, AlphaLISA. As to the method: The NLRP3 inflammasome inhibitory activity of test compounds were evaluated on the basis of the inhibitory activity of the IL-1β production in THP1-Null cells (Product Number: thp-null, InvivoGen). […] The supernatant of the culture was removed, and thereto was added media for assay (25 μL/well) containing 1 μg/mL Lipopolysaccharides (Product Number: L2654, Sigma-Aldrich (registered trademark)). […] The supernatant of the culture was removed. […] A solution containing a test compound (20 μL/well) was added to test compound-setting wells. […] The supernatant of the culture was cryonically stored (set at −20° C.) until measurement of IL-1β.
The amount of IL-1β in the culture supernatant was quantitated with AlphaLISA(registered trademark) Human IL-1β Detection Kit (Product Number: AL220C, Perkin Elmer). Fluorescence intensity was measured with a microplate reader EnSpier (Model number: 2300-00J, Perkin Elmer) or EnSight(Model number: HH34000000, Perkin Elmer) according to procedure manuals attached thereto. Inhibition rates of the test compound-setting wells were calculated on the basis of 100% for the blank-setting wells and 0% for the control-setting wells.
For orientation: In Alpha technology, singlet oxygen from a donor bead excites a nearby acceptor bead.
Consider `CC(O)c1cc(Br)ccc1-n1cc2c(=O)[nH]c(N3CCOCC3)nc2n1` (racemic) [Example 130], for which the pIC50 was 7.20.

`Cc1cc(Cl)cc(C#N)c1-n1cc2c(=O)[nH]c(N3CCOCC3)nc2n1` [Example 168]: the pIC50 was 7.22.

`Cc1cc(Br)ccc1-n1cc2c(=O)[nH]c(N3CC4(COC4)C3)nc2n1` [Example 191] gave a pIC50 of 7.46. This pIC50 lies 0.24 log units higher than the previous one.

Compound `COc1ccccc1CN(C)c1nc2nn(-c3ccccc3C)cc2c(=O)[nH]1` [Example 7] had a pIC50 of 4.66. On to `COC1CN(c2nc3nn(-c4c(C)cccc4C)cc3c(=O)[nH]2)C1` [Example 50], for which the pIC50 is 5.92. Compound `Cc1cc(Br)cc(C)c1-n1cc2c(=O)[nH]c(N3CC4CC3CN4S(C)(=O)=O)nc2n1` (racemic) [Example 219] had a pIC50 of 7.72. The same measure, in the same setting: under `Cc1cc(Br)cc(C)c1-n1cc2c(=O)[nH]c(N3C[C@@H]4C[C@H]3CO4)nc2n1` [Example 195] stands 8.17. Compound `Cc1cc(C(F)(F)F)cc(C)c1-n1cc2c(=O)[nH]c(N3CCOCCO3)nc2n1` [Example 357] had a pIC50 of 7.55. `O=c1[nH]c(N2CCCNCC2)nc2nn(-c3ccc(C(F)(F)F)cc3Cl)cc12` [Example 133] gave a pIC50 of 7.20.

For the compound `Cc1cc(C(F)(F)F)cc(C)c1-n1cc2c(=O)[nH]c(N3CC4CC(C3)O4)nc2n1` [Example 277], the pIC50 is 7.80. With `Cc1ccccc1-n1cc2c(=O)n(C)c(N3CCCC3)nc2n1` [Example 14], the pIC50 was 5.14. This pIC50 is 2.66 log units lower than that of the compound before.

With `Cc1c2c(=O)[nH]c(N3CCCC3)nc2nn1-c1ccc(C(F)(F)F)cc1Cl` [Example 170], the pIC50 is 7.06. Still for that read-out and setting: under `Cc1cc(C(F)(F)F)ncc1-n1cc2c(=O)[nH]c(N3CC(F)(F)C3)nc2n1` [Example 99] stands 7.09. `COCC(=O)N1CC2CC1CN2c1nc2nn(-c3c(C)cc(C4CC4)cc3C)cc2c(=O)[nH]1` (racemic) [Example 234] showed a pIC50 of 7.62. Consider `O=c1[nH]c(N2CC(CCO)C2)nc2nn(-c3ccc(C(F)(F)F)cc3Cl)cc12` [Example 180], for which the pIC50 was 7.46. `COC[C@@H]1CCN(c2nc3nn(-c4ccc(Br)cc4C)cc3c(=O)[nH]2)CCO1` [Example 192] had a pIC50 of 7.49.

Consider `O=c1[nH]c(N2CCCC2CO)nc2nn(-c3ccc(C(F)(F)F)cc3Cl)cc12` (racemic) [Example 178], for which the pIC50 is 7.48. This pIC50 and that of the compound before are within 0.2 log units of each other. In turn, `Cc1ccc(-n2cc3c(=O)[nH]c(N4CCCC4)nc3n2)cc1` [Example 40] gave a pIC50 of 6.11. As to `Cc1cc(C(F)(F)F)cc(C)c1-n1cc2c(=O)[nH]c(N3CC4CCC(C3)O4)nc2n1` [Example 295], the pIC50 is 7.70. Against the preceding compound, the pIC50 is 1.59 log units higher. The compound `Cc1cc(Br)ccc1-n1cc2c(=O)[nH]c(N3CCOCC3)nc2n1` [Example 69] had a pIC50 of 7.62. The pIC50 values of the last two compounds are within 0.2 log units of each other. Turning to `Cc1ccc(C(F)(F)F)cc1-n1cc2c(=O)[nH]c(N3CCCC3)nc2n1` [Example 6], the pIC50 was 5.40.

For the compound `CS(=O)(=O)N1CCCN(c2nc3nn(-c4ccc(C(F)(F)F)cc4Cl)cc3c(=O)[nH]2)CC1` [Example 135], the pIC50 is 7.37. `O=c1[nH]c(N2C[C@H]3C[C@@H]2CO3)nc2nn(-c3ccc(C4CC4)cc3C(F)(F)F)cc12` [Example 262]: the pIC50 was 8.01. The same measure, in the same setting: next, `CCOC1CCN(c2nc3nn(-c4ccc(C)cc4C)cc3c(=O)[nH]2)C1` (racemic) [Example 57]: 6.82; `Cc1cc(C)c(-n2cc3c(=O)[nH]c(N4CCOCC4)nc3n2)c(Cl)c1` [Example 148]: 7.72. The compound `Cc1cc(Cl)ccc1-n1cc2c(=O)[nH]c(N3CCCC3)nc2n1` [Example 95] gave a pIC50 of 8.28. This pIC50 lies 0.56 log units higher than the previous one. For the compound `CCOC1CCN(c2nc3nn(-c4c(C)cccc4C)cc3c(=O)[nH]2)C1` (racemic) [Example 48], the pIC50 is 6.09. The compound `Cc1cc(C(F)(F)F)ncc1-n1cc2c(=O)[nH]c(N3CCOCC3)nc2n1` [Example 98, 2-(4-methyl-6-(trifluoromethyl)pyridin-3-yl)-6-morpholino-2,5-dihydro-4H-pyrazolo[3,4-d]pyrimidin-4-one] gave a pIC50 of 7.27.

`Cc1ccccc1-n1cc2c(=O)[nH]c(N(C)C(C)C)nc2n1` [Example 23] gave a pIC50 of 5.72.

Compound `COc1cc(Cl)ccc1-n1cc2c(=O)[nH]c(N3CCCC3)nc2n1` [Example 205] gave a pIC50 of 7.49.

Compound `CC(C)(C)OC(=O)N1CC2CN(c3nc4nn(-c5ccc(C(F)(F)F)cc5Cl)cc4c(=O)[nH]3)CC2C1` (stereo not drawn) [Example 179] had a pIC50 of 7.57. As to `Cc1nn(C2CCC2)c(C)c1-n1cc2c(=O)[nH]c(N3CCCC3)nc2n1` [Example 344], the pIC50 is 6.19. With `Cc1cc(Br)cc(C)c1-n1cc2c(=O)[nH]c(N3CCC[C@@H]3C)nc2n1` [Example 285], the pIC50 was 7.57.

As for `Cc1ccc(-n2cc3c(=O)[nH]c(N4CCCC4)nc3n2)c(C)c1` [Example 45], the pIC50 was 7.15. Regarding `Cc1cc(Br)cc(C)c1-n1cc2c(=O)[nH]c(NCCOCCO)nc2n1` [Example 360], the pIC50 was 8.21. Regarding `Cc1cc(Br)cc(C)c1-n1cc2c(=O)[nH]c(N3CCc4cccnc43)nc2n1` [Example 340], the pIC50 is 6.33. As to `Cc1cc(Br)cc(C)c1-n1cc2c(=O)[nH]c(NCCF)nc2n1` [Example 267], the pIC50 is 8.19. For `Cc1ccccc1-n1cc2c(=O)[nH]c(N3CCC(C#N)C3)nc2n1` (racemic) [Example 26], the pIC50 was 5.89.

In turn, `Cc1nc(C(F)(F)F)ccc1-n1cc2c(=O)[nH]c(N3CCOCC3)nc2n1` [Example 121] showed a pIC50 of 6.27. Still for that read-out and setting: next, `CNc1nc2nn(-c3ccccc3C)cc2c(=O)[nH]1` [Example 36]: 5.77. As to `Cc1cc(C(C)C(F)(F)F)cc(C)c1-n1cc2c(=O)[nH]c(N3CCOCC3)nc2n1` (racemic) [Example 294], the pIC50 is 6.57. Same read-out and setting: next, `Cc1cc(C2CC2)cc(C)c1-n1cc2c(=O)[nH]c(N3CCC3)nc2n1` [Example 328]: 8.24; `COC1CCN(c2nc3nn(-c4ccc(C)cc4C)cc3c(=O)[nH]2)C1` (racemic) [Example 56]: 6.72; `O=c1[nH]c(N2CCOCC2)nc2nn(-c3ccc(C4CC4)cc3C3CC3)cc12` [Example 210]: 8.14. The same measure, in the same setting: under `Cc1ccccc1-n1cc2c(=O)[nH]c(N3CCCC3)nc2n1` [Example 3, 6-(pyrrolidin-1-yl)-2-(o-tolyl)-2,5-dihydro-4H-pyrazolo[3,4-d]pyrimidin-4-one] stands 6.28; under `COCCNc1nc2nn(-c3ccc(C)cc3C)cc2c(=O)[nH]1` [Example 60], 6.62; under `CC(C)c1cc(C(F)(F)F)cnc1-n1cc2c(=O)[nH]c(N3CCOCC3)nc2n1` [Example 236], 6.14. Compound `Cc1cc(Br)cc(C)c1-n1cc2c(=O)[nH]c(N3CCC[C@H]3C)nc2n1` [Example 284] gave a pIC50 of 7.92. `O=c1[nH]c(N2CCOCC2)nc2nn(-c3ccc(Br)cc3C(O)C3CC3)cc12` (racemic) [Example 150]: the pIC50 was 7.80.

As to `Cc1cccc(-n2cc3c(=O)[nH]c(N4CCCC4)nc3n2)c1` [Example 43], the pIC50 was 5.47. Compared with the last compound, the pIC50 is 2.33 log units lower. Consider `Cc1cc(C(F)F)cc(C)c1-n1cc2c(=O)[nH]c(N3CCOCC3)nc2n1` [Example 329], for which the pIC50 was 7.35. This pIC50 is 1.88 log units higher than that of the compound before.

As for `Cc1cc(Br)ccc1-n1cc2c(=O)n(CC#N)c(N3CCOCC3)nc2n1` [Example 172], the pIC50 is 6.72. On the same count and under the same terms, under `Cc1cc(Br)cc(C)c1-n1cc2c(=O)[nH]c(N3CC4CC(C3)O4)nc2n1` [Example 211] stands 8.34.

`Cc1ccc(-n2cc3c(=O)[nH]c(N4CCCC4)nc3n2)c(Cl)c1` [Example 87] had a pIC50 of 8.29. This pIC50 and that of the compound before are within 0.2 log units of each other. Turning to `Cc1cc(Br)cc(C)c1-n1cc2c(=O)[nH]c(N3CC(F)C3)nc2n1` [Example 198], the pIC50 is 8.10. In turn, `Cc1cc(Br)ccc1-n1cc2c(=O)[nH]c(N3CC(F)(F)C3)nc2n1` [Example 76] showed a pIC50 of 8.32. This pIC50 is 0.22 log units higher than that of the compound before. In turn, `O=c1[nH]c(N2CC(F)C2)nc2nn(-c3ccc(C(F)(F)F)cc3Cl)cc12` [Example 181] had a pIC50 of 7.77. Still for that read-out and setting: next, `Cc1cc(C2CC2)cc(C)c1-n1cc2c(=O)[nH]c(N3C[C@@H]4C[C@H]3CO4)nc2n1` [Example 207]: 8.23; `Cc1cc(C)c(-n2cc3c(=O)[nH]c(N4CCC(S(C)(=O)=O)C4)nc3n2)c(C)c1` (racemic) [Example 112]: 7.26. For the compound `Cc1c(-n2cc3c(=O)[nH]c(N4CCCC4)nc3n2)c(C(F)(F)F)nn1C(C)C` [Example 346], the pIC50 is 7.09. On the same count and under the same terms, under `O=c1[nH]c(N2CCCC2)nc2nn(-c3ccccc3Cl)cc12` [Example 1] stands 6.47; under `Cc1cc(Br)cc(C)c1-n1cc2c(=O)[nH]c(N3CC4CC(C3)N4S(C)(=O)=O)nc2n1` [Example 222], 7.74.

The same assay, now with this note: IL-1β production in THP1-Null cells; test compound 0.0024 μM.
`Cc1cc(C2CC2)cc(Cl)c1-n1cc2c(=O)[nH]c(N3CCOCC3)nc2n1` [Example 147] gave an inhibition at 0.0024 µM of 54%. The compound `Cc1cc(Br)cc(C)c1-n1cc2c(=O)[nH]c(NC3CC3)nc2n1` [Example 230] gave an inhibition at 0.0024 µM of 60%.

The same assay, now with this note: IL-1β production in THP1-Null cells; test compound 2.4 μM.
`O=c1[nH]c(N2CCOCC2)nc2nn(-c3c(Cl)cc(C(F)(F)F)cc3N3CCOCC3)cc12` [Example 256] gave an inhibition at 2.4 µM of 40%. On to `COc1ccc(CNc2cc(C(F)(F)F)cc(Cl)c2-n2cc3c(=O)[nH]c(N4CCOCC4)nc3n2)c(OC)c1` [Example 269], for which 2.4 µM produced 25% inhibition.
